For this assay, the system named is skin. The experiment in a line: Effect of topical application of R-55 on skin of female volunteers. It is filed as in vivo, human. The settings on record: two middle-aged Caucasian female volunteers, daily topical application, after about one month. As for the experimental part:
A formulation for topical administration of R-55 (2-((4-(3-hydroxyphenyl)piperazin-1-yl)methyl)quinazolin-4-one) was prepared, comprising 10 mg/ml R-55.
A lipid-based phase was formed which consisted primarily of propylene glycol (a solvent of R-55 and penetration enhancer), along with Gelucire® 44/14 lauroyl macrogolglycerides (a solubilizer of R-55), Gelucire® 50/13 stearoyl macrogolglycerides (a sustained release agent), phosphatidyl choline (a surfactant), Labrasol® caprylocaproyl macrogolglycerides (a co-surfactant and penetration enhancer), Lauroglycol™ 90 (a solubilizer of R-55, co-surfactant and penetration enhancer), and vitamin E TPGS (a stabilizer). The ingredients were mixed by stirring at a temperature in a range of from 40° C. to 60° C. until the phosphatidyl choline and R-55 were completely dissolved, as indicated by obtaining a clear solution.
An aqueous solution of a carbomer (Carbopol® Ultrez 10) was added to the lipid-based phase with R-55 to obtain 100 grams of a suspension, which was stirred continuously at room temperature. A gel-like water-in-oil emulsion was formed, with relatively round aqueous droplets dispersed in a lipophilic phase, and the emulsion was stable for at least 2 weeks at room temperature. […]

Molecules are shown by their SMILES.

On to `O=c1nc(CN2CCN(c3cccc(O)c3)CC2)[nH]c2ccccc12` [R-55, 2-((4-(3-hydroxyphenyl)piperazin-1-yl)methyl)quinazolin-4-one], for which the skin pigmentation entry (10 mg/ml R-55, face and behind the ear) was “noticeably less pigmented”. Besides, the skin appearance result (10 mg/ml R-55) is “overall fresher, younger appearance”.

These data come from patent US11033549B2, “Use of heterocyclic compounds in the treatment of pigmented skin” (ATIR Holding S.A., priority 2017, dated 2021).
